Results taken from publication PMC2751796 (Pharmacology & therapeutics, 2009).
Where two headings read alike, the source gives them in different places.

Columns and labels:
[1] = test system: MRPs, organic anion transporters; settings: cited from earlier work
[2] = cited from earlier work
[3] = ref Heideman et al., 1986; cited from earlier work
rOAT3 = settings: inhibition of rOAT3-mediated 6-mercaptopurine transport; ref Mori et al., 2004; cited from earlier work
[4] = mouse, in vivo; cited from earlier work
Mrp2 = settings: ref Potschka et al., 2003; cited from earlier work
hPXR = settings: ref Bauer et al., 2006, cited from earlier work
P-gp [5] = settings: 150 mg, iv; ref Kurnik et al., 2008; cited from earlier work
[6] = mice, 50 mg/kg, PO; ref Hubensack et al., 2008; cited from earlier work
[7] = highest dose; ref Bankstahl et al., 2008; cited from earlier work
Bcrp [8] = settings: cited from earlier work
P-gp [9] = settings: AUC, cited from earlier work
Bcrp [10] = settings: ref de Vries et al., 2007; cited from earlier work
P-gp and BCRP = settings: ref de Vries et al., 2007; cited from earlier work
P-gp [11] = settings: ref de Vries et al., 2007; cited from earlier work
P-gp [12] = settings: cited from earlier work
P-gp [13] = settings: ref Passchier et al., 2003; cited from earlier work
P-gp [14] = test system: P-gp; parameters: species or system human; settings: at 5.6 μM cyclosporine blood concentration
P-gp [15] = settings: rhesus monkey, 8 mg/kg; ref Zoghbi et al., 2008; cited from earlier work
Ent1 = settings: mice; ref Lepist et al., 2008; cited from earlier work
[16] = intraventricularly injected, ref Bode et al., 1980
[17] = Elacridar (50 and 100 mg/kg, PO), ref de Vries et al., 2007

Sc1ncnc2nc[nH]c12 [6-mercaptopurine]
Increase of brain-to-plasma concentration ratio with probenecid in rats ([1]; ref Deguchi et al., 2000): up to 4.4 fold

CN(Cc1cnc2nc(N)nc(N)c2n1)c1ccc(C(=O)N[C@@H](CCC(=O)O)C(=O)O)cc1 [Methotrexate]
Increase of CSF concentrations by probenecid ([2]; 4 patients, ref Howell et al., 1979): 2.8 to 4.2 fold | Effect of probenecid 1250 mg/m^2 daily on efflux kinetics [2, 16]: did not change | Extension of terminal half life (CSF) by probenecid 2500 mg/m^2 [2, 16]: up to 53% | CSF concentrations with vincristine vs. monotherapy ([2]; patient with lymphoma, ref Tejada & Zubrod, 1979): 2.5 fold | Effect of vindesine on CSF concentration ([2]; ref Tubiana et al., 1985): did not affect | CNS distribution in untreated subjects (ventricular CSF / plasma AUC ratio) [3]: 0.02 (ventricular CSF / plasma AUC ratio) | Ki relative to estimated brain concentration in patients receiving chemotherapy (rOAT3): 17.5 fold

CCC1(c2ccccc2)C(=O)NC(=O)NC1=O [Phenobarbital]
Brain uptake ratio in WT, untreated mice [4]: ∼ 0.27-0.4

O=C1NC(=O)C(c2ccccc2)(c2ccccc2)N1 [Phenytoin]
Extracellular concentrations and anticonvulsant activity vs. rats that do not lack Mrp2 (Mrp2): two-fold greater | Enhancement of brain penetration and anticonvulsant activity by probenecid ([1]; ref Potschka et al., 2003): up to two-fold

CO[C@H]1/C=C/O[C@@]2(C)Oc3c(C)c(O)c4c(O)c(c(/C=N/N5CCN(C)CC5)c(O)c4c3C2=O)NC(=O)/C(C)=C\C=C\[C@H](C)[C@H](O)[C@@H](C)[C@@H](O)[C@@H](C)[C@H](OC(C)=O)[C@@H]1C [Rifampin]
Predicted average steady state unbound plasma concentration (hPXR; 50 mg/kg, oral, for 3 days): 0.34 µg/mL

COc1cc2c(cc1OC)CN(CCc1ccc(NC(=O)c3cc(OC)c(OC)cc3NC(=O)c3cnc4ccccc4c3)cc1)CC2 [Tariquidar]
Inhibition of lymphocyte P-gp activity (P-gp [5]): completely inhibited | Inhibitor concentration (brain) [6]: 3-9 nmol/g (brain) (∼2-fold greater in plasma) | Tariquidar blood concentration [7]: 1402 ng/mL | Tariquidar brain concentration [7]: 4131 ng/mL

CC[C@@]1(O)C(=O)OCc2c1cc1n(c2=O)Cc2cc3c(CN(C)C)c(O)ccc3nc2-1 [Topotecan]
Increase of oral bioavailability with elacridar in Mdr1a/b-/- mice (Bcrp [8]; ref Jonker et al., 2000): more than 6 fold | Increase of placental transfer with elacridar in Mdr1a/b-/- mice (Bcrp [8]; ref Jonker et al., 2000): > 2 fold | Increase of brain distribution with elacridar in Mdr1a/b-/- mice (Bcrp [8]; ref de Vries et al., 2007): 1.6 fold | Fold change in brain uptake ratio in inhibitor-treated vs. control mice (P-gp [9]; [17]): 1.6 fold | Fold change in brain uptake ratio in inhibitor-treated vs. control mice (value corrected for drug in vasculature) (P-gp [9]; [17]): 1.7 fold | Fold change in brain uptake ratio in inhibitor-treated vs. control mice (P-gp [9]; Gefitinib (200 mg/kg, PO), microdialysis, ref Zhuang et al., 2006): 1.7 ^b, AUC fold | Brain-to-plasma AUC ratio in Bcrp-/- mice compared to WT controls (Bcrp [10]): not different | Increase of brain-to-plasma AUC ratio in Mdr1a/b-/-/Bcrp-/- mice (P-gp and BCRP): 3.2 fold | Brain-to-plasma AUC ratio in Mdr1a/b-/- mice compared to WT controls (P-gp [11]): two times higher

CN([11CH3])C(=O)C(CCN1CCC(O)(c2ccc(Cl)cc2)CC1)(c1ccccc1)c1ccccc1 [[^11C]-Loperamide]
Increase in distribution of radioactivity at the human BBB on P-gp inhibition (P-gp [12]; data obtained so far): ~100% | Increase of brain [^11C]-loperamide with cyclosporine in humans (P-gp [12]; intravenous infusion 10 mg/kg/2 hr, ref Passchier et al., 2008): ~110% | Increase in brain radioactivity with cyclosporine in pigs (P-gp [13]): up to 7 fold | Predicted increase in CNS distribution in humans (P-gp [14]): 56-412% | Increase in plasma radioactivity with DCPQ (P-gp [15]): 16%

CCC(=O)C(CC(C)N(C)C)(c1ccccc1)c1ccccc1 (centres unmarked) [methadone]
Decrease of antinociceptive effect after rifampin (hPXR; hPXR transgenic mice, vs. vehicle): 70%

OC[C@H]1O[C@@H](n2cnc3c(N[C@@H]4CCOC4)ncnc32)[C@H](O)[C@@H]1O [tecadenoson]
Decrease in brain AUC with nitrobenzyl-mercaptopurine ribonucleoside (Ent1): 2.5 fold
